Results published in ChEMBL document CHEMBL1127173, “EPSP synthase inhibitor deisgn III. Synthesis & evaluation of a new 5-oxamic acid analog of EPSP which incorporates a malonate ether as a 3-phosphate mimic” (Bioorg Med Chem Lett, 1993).

Target: T1, 3-phosphoshikimate 1-carboxyvinyltransferase (Escherichia coli K-12, UniProt P0A6D3)
T1 sequence (P0A6D3 whole entry): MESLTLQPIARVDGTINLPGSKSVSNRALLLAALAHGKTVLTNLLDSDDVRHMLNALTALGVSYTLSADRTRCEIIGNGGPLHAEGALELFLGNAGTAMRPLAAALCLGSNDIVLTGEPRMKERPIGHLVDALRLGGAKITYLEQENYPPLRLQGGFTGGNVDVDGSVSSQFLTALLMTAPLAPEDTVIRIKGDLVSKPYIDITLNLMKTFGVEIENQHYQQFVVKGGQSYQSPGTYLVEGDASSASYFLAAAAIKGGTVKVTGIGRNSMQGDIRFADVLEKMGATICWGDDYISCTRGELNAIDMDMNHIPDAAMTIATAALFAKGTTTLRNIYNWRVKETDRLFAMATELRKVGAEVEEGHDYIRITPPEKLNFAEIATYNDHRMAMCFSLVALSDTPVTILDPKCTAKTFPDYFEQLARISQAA
Assay: The compound was tested for the inhibition of Escherichia coli 5-enolpyruvyl-shikimate-3-phosphate synthase (EPSP).

Row | Ki [µM] | IC50 [µM] | SMILES
1 | 1.5 | – | O=C(O)CO[C@@H]1CC(C(=O)O)=C[C@@H](OP(=O)(O)O)[C@H]1O
2 | 5.2 | – | O=C(O)C(=O)N[C@@H]1CC(C(=O)O)=C[C@@H](OC(C(=O)O)C(=O)O)[C@H]1O
3 | 90 | – | N[C@@H]1CC(C(=O)O)=C[C@@H](OP(=O)(O)O)[C@H]1O
4 | – | > 10000 | O=C(O)C(=O)N[C@@H]1CC(C(=O)O)=C[C@@H](O)[C@H]1O
